Results on 17 molecules are retold here after patent publication US20080199503A1, “Pharmaceutical Compositions Preparation of Peptides, Secreted by the Snake Venom Glands, Particularly of Bothrops Jararaca, Vasopeptidases Inhibitors, Evasins, Their Analogues, Derivatives and Products Associated, Thereof, for Development of Applications and Use in Chronic-Degenerative Diseases” (priority 2002, published 2008).

Square brackets hold non-standard residues; d marks the D form. Ends that are not written are not given here. Peptide text beside a SMILES is read from it. pGlu = O=C1CC[C@@H](C(=O)O)N1

Experiment [1] concerns the target C-terminal catalytic site of the Angiotensin I converting enzyme (recombinant ACE) (Homo sapiens, UniProt P12821). Briefly: Inhibition of the C-terminal catalytic site of recombinant ACE (fluorogenic substrate). The format is biochemical. As for the experimental part:
(§1) The fractions from purification were submitted to mass spectrometry analysis to conforming the Evasins molar mass after purification. • The enzyme assays for the recombinant ACE inhibition were conducted using the substrate Mca-Ala-Ser-Asp-Lys-DpaOH, at 25° C., in a 50 mM Hepes buffer (pH 6.8), 200 mM NaCl and […] ZnCl2.

For experiment [2], the target named is N-terminal catalytic site of the Angiotensin I converting enzyme (recombinant ACE) (Homo sapiens, UniProt P12821). As to the kind of experiment: Inhibition of the N-terminal catalytic site of recombinant ACE (fluorogenic substrate). The format is biochemical. As for the experimental part: as §1
The target of experiment [3] is neutral endopeptidase (recombinant NEP) (Homo sapiens, UniProt P08473). Briefly: Fluorometric assay of recombinant NEP inhibition. The format is biochemical. As for the experimental part:
The fluorometric assays for the recombinant NEP inhibition were conducted using the substrate Abz-RL-EDDnp in a 50 mM Tris-HCl buffer, pH 7.5, at 37° C. […] The Evasins were pre-incubated with the enzyme before the substrate addition.
The inhibition constants (Ki) values were determined by means of the ratio of the apparent inhibition constant (Ki(app)) and the substrate Km (Salvesen and Nagase, 1990). In: Proteolytic enzymes a practical aproach, Beynon and Bond Eds Oxford University Press, England, 87-88).

The test system of experiment [4] is anesthetized normotensive rats (WKY) blood pressure. As to the kind of experiment: Potentiation of the bradykinin hypotensive effect on anesthetized rat blood pressure. The format is in vivo. The conditions noted are these: for Bk potentiation(%): hypotension increase of a single bradykinin dose after 200 nmol of potentiator i.v., anesthetized rats; for Duration time: time to reduce the potentiating effect by 50%, 200 nmol/rat i.v., unit not given, minutes. As for the experimental part: The potentiating activity of the bradykinin hypotensive effect was tested in anesthetized rats. Normotensive male rats (WKY) were anesthetized using pentobarbital sodium (Hypnol® Cristália, 50 mg/kg, intraperitoneal) and placed on a controlled-temperature board for maintaining the body temperature between 36.5° C. and 37° C. A polygraph coupled to a physiological transducer was used. The blood pressure ranging values were obtained by integrating the areas limited by the baseline pressure and comparing them to the values obtained from control assays. In in vivo assays, the potentiating activity of Evasins on the hypotensive effect of bradykinin on anesthetized rat blood pressure was observed. Two parameters were determined for comparison of the potentiating effects of bradykinin on the anesthetized rat blood pressure (n=5):
1) Intensity of the potentiating effect of the hypotensive activity of bradykinin on the anesthetized rats blood pressure: This value was defined as the hypotension percentage (%) increase caused by a single dose of bradykinin obtained after the infusion of 200 nmol of potentiator. 2) Potentiating effect length: Time required to reduce the potentiating effect on a single dose of bradykinin by 50%.

In experiment [5] the target is recombinant neutral endopeptidase. Briefly: fluorogenic substrate (Abz-RL-EDDnp) inhibition assay, recombinant NEP.
The target in experiment [6] is T1, recombinant Angiotensin I converting enzyme, C-terminal catalytic site.
T1 chain: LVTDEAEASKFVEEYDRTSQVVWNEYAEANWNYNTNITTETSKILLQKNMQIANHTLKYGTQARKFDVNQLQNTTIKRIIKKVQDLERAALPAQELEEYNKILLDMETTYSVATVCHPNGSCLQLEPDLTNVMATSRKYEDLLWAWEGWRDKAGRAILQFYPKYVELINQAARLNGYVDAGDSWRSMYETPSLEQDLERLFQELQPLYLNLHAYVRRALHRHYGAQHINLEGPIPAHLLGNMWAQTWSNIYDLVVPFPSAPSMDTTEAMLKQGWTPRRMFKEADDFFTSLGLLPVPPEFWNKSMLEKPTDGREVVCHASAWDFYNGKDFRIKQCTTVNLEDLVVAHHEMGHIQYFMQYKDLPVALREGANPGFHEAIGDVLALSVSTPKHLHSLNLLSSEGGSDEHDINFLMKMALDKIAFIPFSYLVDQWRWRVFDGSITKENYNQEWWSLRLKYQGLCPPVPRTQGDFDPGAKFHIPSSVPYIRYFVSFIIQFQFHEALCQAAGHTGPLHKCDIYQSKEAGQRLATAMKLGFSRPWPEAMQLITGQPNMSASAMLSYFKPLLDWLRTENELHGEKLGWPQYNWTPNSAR

The target of experiment [7] is T2, recombinant Angiotensin I converting enzyme, N-terminal catalytic site.
T2 chain: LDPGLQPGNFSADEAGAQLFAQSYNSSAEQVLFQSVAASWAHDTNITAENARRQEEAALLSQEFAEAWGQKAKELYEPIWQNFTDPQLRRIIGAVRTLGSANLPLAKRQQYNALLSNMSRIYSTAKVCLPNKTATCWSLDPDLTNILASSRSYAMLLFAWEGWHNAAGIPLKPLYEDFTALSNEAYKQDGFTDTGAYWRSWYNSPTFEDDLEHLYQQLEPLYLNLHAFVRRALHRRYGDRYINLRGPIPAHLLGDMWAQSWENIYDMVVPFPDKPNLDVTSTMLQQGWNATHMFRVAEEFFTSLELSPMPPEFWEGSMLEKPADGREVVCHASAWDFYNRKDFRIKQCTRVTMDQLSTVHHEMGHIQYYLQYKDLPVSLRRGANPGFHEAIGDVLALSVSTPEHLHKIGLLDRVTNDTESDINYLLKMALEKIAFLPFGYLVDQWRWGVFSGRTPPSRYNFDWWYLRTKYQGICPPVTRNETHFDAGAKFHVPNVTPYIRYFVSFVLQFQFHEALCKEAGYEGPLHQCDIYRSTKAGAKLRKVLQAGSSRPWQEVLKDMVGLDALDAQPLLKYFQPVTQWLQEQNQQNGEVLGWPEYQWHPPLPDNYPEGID

Sequence of neutral endopeptidase (recombinant NEP) (P08473 whole entry, species assumed): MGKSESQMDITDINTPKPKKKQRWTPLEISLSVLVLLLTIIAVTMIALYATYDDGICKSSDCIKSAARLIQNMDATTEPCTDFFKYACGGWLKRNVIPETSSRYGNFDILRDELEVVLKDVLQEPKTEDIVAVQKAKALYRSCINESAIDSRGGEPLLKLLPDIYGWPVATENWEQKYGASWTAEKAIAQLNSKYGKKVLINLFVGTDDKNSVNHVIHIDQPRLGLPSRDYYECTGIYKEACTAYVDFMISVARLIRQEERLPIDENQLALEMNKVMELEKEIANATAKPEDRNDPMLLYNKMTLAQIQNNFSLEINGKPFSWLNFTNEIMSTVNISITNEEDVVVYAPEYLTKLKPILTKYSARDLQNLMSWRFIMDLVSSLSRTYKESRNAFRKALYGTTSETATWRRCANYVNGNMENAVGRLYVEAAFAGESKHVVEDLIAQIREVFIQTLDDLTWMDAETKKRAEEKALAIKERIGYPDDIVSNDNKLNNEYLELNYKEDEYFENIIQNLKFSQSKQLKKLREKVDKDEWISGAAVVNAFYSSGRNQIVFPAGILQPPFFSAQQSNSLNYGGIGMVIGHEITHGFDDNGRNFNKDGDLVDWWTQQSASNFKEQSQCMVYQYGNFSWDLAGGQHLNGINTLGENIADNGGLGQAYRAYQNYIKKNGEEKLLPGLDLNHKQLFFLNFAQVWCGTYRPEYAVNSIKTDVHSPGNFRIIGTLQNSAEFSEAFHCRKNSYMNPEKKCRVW

For the molecule `CC[C@H](C)[C@H](NC(=O)[C@H](CC(N)=O)NC(=O)[C@@H]1CCCN1C(=O)CNC(=O)[C@@H]1CCCN1C(=O)[C@H](Cc1c[nH]c2ccccc12)NC(=O)[C@H](CO)NC(=O)[C@@H]1CCC(=O)N1)C(=O)N1CCC[C@H]1C(=O)N1CCC[C@H]1C(=O)O` [EVASIN-10a, <ESWPGPNIPP] ([pGlu]SWPGPNIPP-OH; C-terminus assumed), the inhibition constant Ki in experiment [1] amounted to 33 nM; in experiment [2], 130 nM.
For `CC[C@H](C)[C@H](NC(=O)[C@@H]1CCCN1C(=O)[C@@H]1CCCN1C(=O)CNC(=O)[C@@H]1CCCN1C(=O)[C@H](C)NC(=O)[C@H](CCCNC(=N)N)NC(=O)CNC(=O)[C@@H]1CCC(=O)N1)C(=O)N1CCC[C@H]1C(=O)N1CCC[C@H]1C(=O)O` [EVASIN-11b, <EGRAPGPPIPP] ([pGlu]GRAPGPPIPP-OH; C-terminus assumed), the inhibition constant (Ki) turned out to be 57 nM in experiment [1], 3000 nM in experiment [2] and 476000 nM in experiment [3]. For the same molecule, the “Bk potentiation(%)” value in experiment [4] was 164.3%. In addition, in experiment [4], the Duration time is 90.
Taken in the same sequence, the figures for `CC[C@H](C)[C@H](NC(=O)[C@@H]1CCCN1C(=O)[C@@H]1CCCN1C(=O)[C@H](Cc1c[nH]cn1)NC(=O)[C@@H]1CCCN1C(=O)[C@H](C)NC(=O)[C@H](CCCNC(=N)N)NC(=O)CNC(=O)[C@@H]1CCC(=O)N1)C(=O)N1CCC[C@H]1C(=O)N1CCC[C@H]1C(=O)O` [EVASIN-11c, <EGRAPHPPIPP] ([pGlu]GRAPHPPIPP-OH; C-terminus assumed) were 40 nM, 2000 nM, 589000 nM, 67% and 28.
For `CC[C@H](C)[C@H](NC(=O)[C@@H]1CCCN1C(=O)[C@@H]1CCCN1C(=O)[C@H](Cc1c[nH]cn1)NC(=O)[C@@H]1CCCN1C(=O)[C@@H]1CCCN1C(=O)[C@H](CCCNC(=N)N)NC(=O)[C@H](C)NC(=O)[C@@H]1CCC(=O)N1)C(=O)N1CCC[C@H]1C(=O)N1CCC[C@H]1C(=O)O` [EVASIN-11e, EARPPHPPIPP] ([pGlu]ARPPHPPIPP-OH; C-terminus assumed), in experiment [4], the “Bk potentiation(%)” value stood at 41% and the Duration time is reported as 35.
Take `CC[C@H](C)[C@H](NC(=O)[C@H](CCC(N)=O)NC(=O)[C@@H]1CCCN1C(=O)[C@H](CCCNC(=N)N)NC(=O)[C@@H]1CCCN1C(=O)[C@H](Cc1c[nH]c2ccccc12)NC(=O)[C@H](C)NC(=O)[C@H](Cc1c[nH]c2ccccc12)NC(=O)CNC(=O)[C@@H]1CCC(=O)N1)C(=O)N1CCC[C@H]1C(=O)N1CCC[C@H]1C(=O)O` [EVASIN-12a, <EGWAWPRPQIPP] ([pGlu]GWAWPRPQIPP-OH; C-terminus assumed): the inhibition constant (Ki) in experiment [1] was found to be 25 nM; in experiment [2], 25 nM; in experiment [3], 106000 nM.
On to `CC[C@H](C)[C@H](NC(=O)[C@@H]1CCCN1C(=O)[C@@H]1CCCN1C(=O)CNC(=O)[C@@H]1CCCN1C(=O)[C@@H]1CCCN1C(=O)[C@H](CCCNC(=N)N)NC(=O)CNC(=O)[C@H](Cc1c[nH]c2ccccc12)NC(=O)[C@@H]1CCC(=O)N1)C(=O)N1CCC[C@H]1C(=O)N1CCC[C@H]1C(=O)O` [EVASIN-12b, <EWGRPPGPPIPP] ([pGlu]WGRPPGPPIPP-OH; C-terminus assumed), for which the Ki in experiment [1] is 150 nM; in experiment [2] it was 5 nM; in experiment [3], 150000 nM. In addition, the “Bk potentiation(%)” value in experiment [4] was 340%. Besides, the Duration time in experiment [4] is listed as 40.
For `CC[C@H](C)[C@H](NC(=O)[C@H](CCC(=O)O)NC(=O)[C@@H]1CCCN1C(=O)CNC(=O)[C@@H]1CCCN1C(=O)[C@H](CCCNC(=N)N)NC(=O)[C@@H]1CCCN1C(=O)[C@H](Cc1c[nH]c2ccccc12)NC(=O)CNC(=O)CNC(=O)[C@@H]1CCC(=O)N1)C(=O)N1CCC[C@H]1C(=O)N1CCC[C@H]1C(=O)O` [EVASIN-13a, <EGGWPRPGPEIPP] ([pGlu]GGWPRPGPEIPP-OH; C-terminus assumed), the Ki was 50 nM in experiment [1], 50 nM in experiment [2] and 473000 nM in experiment [3]. Also, the “Bk potentiation(%)” value in experiment [4] turned out to be 45%. The Duration time in experiment [4] is given as 30.
Take EVASIN-10c (peptide): the inhibition constant Ki in experiment [5] came to 253000 nM.
Regarding [pGlu]KWAP [EVASIN-5a], the figures for the Ki in experiment [6], in experiment [7] and in experiment [5] were 1280 nM, 399 nM and 550000 nM, respectively.
As to [pGlu]WGRPPGPPIPP [EVASIN-12b], the Ki came to 150 nM in experiment [6], 5 nM in experiment [7] and 150000 nM in experiment [5].
Take [pGlu]SWPGPNIPP [EVASIN-10a]: the values for the Ki in experiment [6] and in experiment [7] were 33 nM and 130 nM, respectively.
For [pGlu]GWAWPRPQIPP [EVASIN-12a], the Ki was 25 nM in experiment [6], 25 nM in experiment [7] and 106000 nM in experiment [5].
For the molecule [pGlu]DGPIPP [EVASIN-7a], the Ki came to 40000 nM in experiment [6], 70000 nM in experiment [7] and 492000 nM in experiment [5].
Take EWPRPQIPP (pyroglutamic acid (<E) at position 1 (N-terminus)) [EVASIN-9a]: the inhibitory constant (Ki) in experiment [6] turned out to be 1 nM; in experiment [7], 100 nM; in experiment [5], 86000 nM.
On to [pGlu]GGWPRPGPEIPP [EVASIN-13a], for which the inhibitory constant (Ki) stood at 50 nM in experiment [6], 50 nM in experiment [7] and 473000 nM in experiment [5].
[pGlu]GRAPGPPIPP [EVASIN-11b]: the inhibition constant Ki in experiment [6] came to 57 nM; in experiment [7], 3000 nM; in experiment [5], 476000 nM.
Turning to [pGlu]GRAPHPPIPP [EVASIN-11c], the results for the Ki in experiment [6], in experiment [7] and in experiment [5] were 40 nM, 2000 nM and 589000 nM, respectively.
